Laboratory results taken from PubChem BioAssay (NCI).
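Five concentrations, 48 hours, 96-well plates. Abbreviation: GI50, concentration required for 50% inhibition of growth. TGI: concentration producing complete growth inhibition.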

How the values were obtained:
Assay in all cases: NCI-60 cell line screen, 48 h
786-0 renal = system: 786-0 renal
A498 renal = system: A498 renal
A549 NSCLC = system: A549 NSCLC
ACHN renal = system: ACHN renal
CAKI-1 renal = system: CAKI-1 renal
CCRF-CEM leukemia = system: CCRF-CEM leukemia
COLO 205 colon = system: COLO 205 colon
DLD-1 colon = system: DLD-1 colon
DMS 114 small cell lung = system: DMS 114 small cell lung
DMS 273 small cell lung = system: DMS 273 small cell lung
EKVX NSCLC = system: EKVX NSCLC
HCC-2998 colon = system: HCC-2998 colon
HCT-116 colon = system: HCT-116 colon
HCT-15 colon = system: HCT-15 colon
HL-60(TB) leukemia = system: HL-60(TB) leukemia
HOP-18 NSCLC = system: HOP-18 NSCLC
HOP-62 NSCLC = system: HOP-62 NSCLC
HT29 colon = system: HT29 colon
IGROV1 ovarian = system: IGROV1 ovarian
K-562 leukemia = system: K-562 leukemia
KM12 colon = system: KM12 colon
KM20L2 colon = system: KM20L2 colon
LXFL 529 NSCLC = system: LXFL 529 NSCLC
M14 melanoma = system: M14 melanoma
M19-MEL melanoma = system: M19-MEL melanoma
MALME-3M melanoma = system: MALME-3M melanoma
MOLT-4 leukemia = system: MOLT-4 leukemia
NCI-H23 lung = system: NCI-H23 lung
NCI-H460 lung = system: NCI-H460 lung
NCI-H522 lung = system: NCI-H522 lung
OVCAR-3 ovarian = system: OVCAR-3 ovarian
OVCAR-4 ovarian = system: OVCAR-4 ovarian
OVCAR-8 ovarian = system: OVCAR-8 ovarian
RPMI-8226 leukemia = system: RPMI-8226 leukemia
RXF 393 renal = system: RXF 393 renal
RXF-631 renal = system: RXF-631 renal
SF-268 CNS = system: SF-268 CNS
SF-295 CNS = system: SF-295 CNS
SF-539 CNS = system: SF-539 CNS
SK-MEL-2 melanoma = system: SK-MEL-2 melanoma
SK-MEL-28 melanoma = system: SK-MEL-28 melanoma
SK-MEL-5 melanoma = system: SK-MEL-5 melanoma
SK-OV-3 ovarian = system: SK-OV-3 ovarian
SN12C renal = system: SN12C renal
SNB-19 CNS = system: SNB-19 CNS
SNB-75 CNS = system: SNB-75 CNS
SNB-78 CNS = system: SNB-78 CNS
SW-620 colon = system: SW-620 colon
TK-10 renal = system: TK-10 renal
U251 CNS = system: U251 CNS
UACC-257 melanoma = system: UACC-257 melanoma
UACC-62 melanoma = system: UACC-62 melanoma
UO-31 renal = system: UO-31 renal
XF 498 CNS = system: XF 498 CNS
HOP-92 NSCLC = system: HOP-92 NSCLC
LOX IMVI melanoma = system: LOX IMVI melanoma
NCI-H226 lung = system: NCI-H226 lung
OVCAR-5 ovarian = system: OVCAR-5 ovarian
SR leukemia = system: SR leukemia

N#Cc1cc(NC(=O)c2ccccc2)c(=O)n2c1[nH]c1ccccc12
TGI (786-0 renal): > 100 µM
TGI (A498 renal): 85.8 µM
TGI (A549 NSCLC): > 100 µM
TGI (ACHN renal): > 100 µM
TGI (CAKI-1 renal): > 100 µM
TGI (CCRF-CEM leukemia): > 100 µM
TGI (COLO 205 colon): > 100 µM
TGI (DLD-1 colon): > 100 µM
TGI (DMS 114 small cell lung): 95.5 µM
TGI (DMS 273 small cell lung): > 100 µM
TGI (EKVX NSCLC): > 100 µM
TGI (HCC-2998 colon): > 100 µM
TGI (HCT-116 colon): > 100 µM
TGI (HCT-15 colon): > 100 µM
TGI (HL-60(TB) leukemia): 74.6 µM
TGI (HOP-18 NSCLC): > 100 µM
TGI (HOP-62 NSCLC): 88.1 µM
TGI (HT29 colon): > 100 µM
TGI (IGROV1 ovarian): > 100 µM
TGI (K-562 leukemia): > 100 µM
TGI (KM12 colon): > 100 µM
TGI (KM20L2 colon): > 100 µM
TGI (LXFL 529 NSCLC): > 100 µM
TGI (M14 melanoma): 76.9 µM
TGI (M19-MEL melanoma): > 100 µM
TGI (MALME-3M melanoma): 83 µM
TGI (MOLT-4 leukemia): > 100 µM
TGI (NCI-H23 lung): 57.7 µM
TGI (NCI-H460 lung): > 100 µM
TGI (NCI-H522 lung): 42 µM
TGI (OVCAR-3 ovarian): 80.7 µM
TGI (OVCAR-4 ovarian): > 100 µM
TGI (OVCAR-8 ovarian): > 100 µM
TGI (RPMI-8226 leukemia): 38.3 µM
TGI (RXF 393 renal): 50.7 µM
TGI (RXF-631 renal): > 100 µM
TGI (SF-268 CNS): > 100 µM
TGI (SF-295 CNS): > 100 µM
TGI (SF-539 CNS): 84.4 µM
TGI (SK-MEL-2 melanoma): 89.8 µM
TGI (SK-MEL-28 melanoma): 67.7 µM
TGI (SK-MEL-5 melanoma): 34.2 µM
TGI (SK-OV-3 ovarian): 90.4 µM
TGI (SN12C renal): > 100 µM
TGI (SNB-19 CNS): 74.7 µM
TGI (SNB-75 CNS): 68.3 µM
TGI (SNB-78 CNS): > 100 µM
TGI (SW-620 colon): > 100 µM
TGI (TK-10 renal): 89.2 µM
TGI (U251 CNS): > 100 µM
TGI (UACC-257 melanoma): > 100 µM
TGI (UACC-62 melanoma): > 100 µM
TGI (UO-31 renal): 42.9 µM
TGI (XF 498 CNS): > 100 µM

CCC[CH2][Sn]([CH2]CCC)([O]C(=O)c1cc(F)cc(F)c1)[O][Sn]([CH2]CCC)([CH2]CCC)[O]C(=O)c1cc(F)cc(F)c1
GI50 (786-0 renal): 1.27 µM
TGI (786-0 renal): 2.53 µM
GI50 (A498 renal): 1.43 µM
TGI (A498 renal): 2.83 µM
GI50 (A549 NSCLC): 9.78 µM
TGI (A549 NSCLC): 21.8 µM
GI50 (ACHN renal): 1.51 µM
TGI (ACHN renal): 2.83 µM
GI50 (CAKI-1 renal): 0.663 µM
TGI (CAKI-1 renal): 1.95 µM
GI50 (CCRF-CEM leukemia): 0.101 µM
TGI (CCRF-CEM leukemia): 0.886 µM
GI50 (COLO 205 colon): 1.05 µM
TGI (COLO 205 colon): 2.34 µM
GI50 (DLD-1 colon): 1.15 µM
TGI (DLD-1 colon): 2.41 µM
GI50 (DMS 114 small cell lung): 0.379 µM
TGI (DMS 114 small cell lung): 1.53 µM
GI50 (DMS 273 small cell lung): 1.23 µM
TGI (DMS 273 small cell lung): 2.47 µM
GI50 (EKVX NSCLC): 1.31 µM
TGI (EKVX NSCLC): 2.59 µM
GI50 (HCC-2998 colon): 1.71 µM
TGI (HCC-2998 colon): 3.32 µM
GI50 (HCT-116 colon): 1.35 µM
TGI (HCT-116 colon): 2.63 µM
GI50 (HCT-15 colon): 1.38 µM
TGI (HCT-15 colon): 2.79 µM
GI50 (HL-60(TB) leukemia): 0.374 µM
TGI (HL-60(TB) leukemia): 2.23 µM
GI50 (HOP-18 NSCLC): 1.96 µM
TGI (HOP-18 NSCLC): 3.38 µM
GI50 (HOP-62 NSCLC): 5 µM
TGI (HOP-62 NSCLC): 14.3 µM
GI50 (HOP-92 NSCLC): 1.25 µM
TGI (HOP-92 NSCLC): 2.52 µM
GI50 (HT29 colon): 1.91 µM
TGI (HT29 colon): 4.09 µM
GI50 (IGROV1 ovarian): 1.64 µM
TGI (IGROV1 ovarian): 3.31 µM
GI50 (K-562 leukemia): 0.256 µM
TGI (K-562 leukemia): 1.12 µM
GI50 (KM12 colon): 3.58 µM
TGI (KM12 colon): 12.4 µM
GI50 (KM20L2 colon): 3.1 µM
TGI (KM20L2 colon): 10.6 µM
GI50 (LOX IMVI melanoma): 1.05 µM
TGI (LOX IMVI melanoma): 2.35 µM
GI50 (LXFL 529 NSCLC): 0.152 µM
TGI (LXFL 529 NSCLC): 0.612 µM
GI50 (M14 melanoma): 1.48 µM
TGI (M14 melanoma): 2.81 µM
GI50 (M19-MEL melanoma): 0.519 µM
TGI (M19-MEL melanoma): 2 µM
GI50 (MALME-3M melanoma): 0.889 µM
TGI (MALME-3M melanoma): 2.18 µM
GI50 (MOLT-4 leukemia): 0.318 µM
TGI (MOLT-4 leukemia): 2.15 µM
GI50 (NCI-H226 lung): 1.45 µM
TGI (NCI-H226 lung): 2.81 µM
GI50 (NCI-H23 lung): 0.606 µM
TGI (NCI-H23 lung): 1.88 µM
GI50 (NCI-H460 lung): 2.67 µM
TGI (NCI-H460 lung): 6.74 µM
GI50 (NCI-H522 lung): 0.0538 µM
TGI (NCI-H522 lung): 0.185 µM
GI50 (OVCAR-3 ovarian): 1.52 µM
TGI (OVCAR-3 ovarian): 2.86 µM
GI50 (OVCAR-4 ovarian): 2.04 µM
TGI (OVCAR-4 ovarian): 3.51 µM
GI50 (OVCAR-5 ovarian): 1.92 µM
TGI (OVCAR-5 ovarian): 3.43 µM
GI50 (OVCAR-8 ovarian): 1.28 µM
TGI (OVCAR-8 ovarian): 2.54 µM
GI50 (RXF 393 renal): 0.423 µM
TGI (RXF 393 renal): 1.56 µM
GI50 (SF-268 CNS): 0.91 µM
TGI (SF-268 CNS): 2.19 µM
GI50 (SF-295 CNS): 1.67 µM
TGI (SF-295 CNS): 3.06 µM
GI50 (SF-539 CNS): 1.34 µM
TGI (SF-539 CNS): 2.8 µM
GI50 (SK-MEL-2 melanoma): 1.02 µM
TGI (SK-MEL-2 melanoma): 2.2 µM
GI50 (SK-MEL-28 melanoma): 1.14 µM
TGI (SK-MEL-28 melanoma): 2.38 µM
GI50 (SK-MEL-5 melanoma): 1.46 µM
TGI (SK-MEL-5 melanoma): 2.77 µM
GI50 (SK-OV-3 ovarian): 3.04 µM
TGI (SK-OV-3 ovarian): 8.38 µM
GI50 (SN12C renal): 1.41 µM
TGI (SN12C renal): 2.76 µM
GI50 (SNB-19 CNS): 1.52 µM
TGI (SNB-19 CNS): 2.86 µM
GI50 (SNB-75 CNS): 1.26 µM
TGI (SNB-75 CNS): 2.71 µM
GI50 (SNB-78 CNS): 0.584 µM
TGI (SNB-78 CNS): 2.29 µM
GI50 (SR leukemia): 0.372 µM
TGI (SR leukemia): 4.32 µM
GI50 (SW-620 colon): 0.626 µM
TGI (SW-620 colon): 1.92 µM
GI50 (TK-10 renal): 1.41 µM
TGI (TK-10 renal): 2.72 µM
GI50 (U251 CNS): 1.08 µM
TGI (U251 CNS): 2.28 µM
GI50 (UACC-257 melanoma): 1.11 µM
TGI (UACC-257 melanoma): 2.34 µM
GI50 (UACC-62 melanoma): 1.4 µM
TGI (UACC-62 melanoma): 2.7 µM
GI50 (UO-31 renal): 1.66 µM
TGI (UO-31 renal): 3.02 µM
GI50 (XF 498 CNS): 1.4 µM
TGI (XF 498 CNS): 2.71 µM
